ChEMBL document CHEMBL1201862, “PubChem BioAssay data set” (2004)
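Each compound was tested at five concentrations against cells in 96-well plates for 48 hours. GI50: concentration for 50% inhibition of growth.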 Activity calls are given as the source filed them. Rule as the data show it: active = GI50 up to about 1.1 µM and inactive = higher.

What was measured:
Experiment in all cases: NCI anticancer screen, dose series, 48 h
[1] = system: SNB-78
[2] = system: RXF 393
[3] = system: HT-29
[4] = system: SK-MEL-5
[5] = system: 786-0
[6] = system: DLD-1
[7] = system: OVCAR-3
[8] = system: MOLT-4
[9] = system: SR
[10] = system: OVCAR-5
[11] = system: A498
[12] = system: HOP-92
[13] = system: CAKI-1
[14] = system: RPMI-8226
[15] = system: MDA-N
[16] = system: MDA-MB-231
[17] = system: BT-549
[18] = system: Hs-578T
[19] = system: PC-3
[20] = system: NCI/ADR-RES

Measured: GI50

O=C(NCCNCCO)N/N=C/c1ccccc1
inactive: [1] > 100 µM | [2] > 100 µM | [3] > 100 µM | [4] > 100 µM | [5] > 100 µM | [6] > 100 µM | [7] > 100 µM | [8] > 100 µM

CCC12C=CCN3CCC4(C(=C(C(=O)OC)C1)Nc1ccccc14)[C@H]32 (some centres undefined)
active: [9] 0.0364 µM
inactive: [10] 70.8 µM | [11] 29.6 µM | [12] 23.4 µM | [2] 24.9 µM | [3] 22.6 µM | [4] 27.2 µM | [5] 23.4 µM | [6] 40.4 µM | [7] 30.8 µM | [13] > 100 µM | [8] 26.7 µM

CCC12C=CCN3CCC4(c5cc(C6(C(=O)OC)CCCCCc7c6[nH]c6ccccc76)c(OC)cc5N(C)C4C(O)(C(=O)OC)C1OC(C)=O)C32 (centres undefined)
active: [3] 0.562 µM
inactive: [9] 2.54 µM | [14] 2.47 µM | [10] 1.9 µM | [1] 2.78 µM | [11] 2.4 µM | [12] 2.26 µM | [2] 1.64 µM | [5] 2.29 µM | [7] 3.83 µM | [13] 2.7 µM | [8] 2.14 µM

O=C1NC2(CCN(CCc3ccccc3)CC2)Oc2ccccc21
inactive: [15] 41.6 µM | [16] 88.3 µM | [17] 39 µM | [9] 52.7 µM | [14] 33.7 µM | [10] 44.2 µM | [18] 15.3 µM | [11] 68.1 µM | [12] 24.7 µM | [2] 22.4 µM | [19] 33.9 µM | [20] 38.2 µM | [3] 38 µM | [4] 14.5 µM | [5] > 100 µM | [7] 77.6 µM | [13] > 100 µM | [8] 32.5 µM

COC1(OC)CC2C(=O)N(Cc3ccccc3)C1CC2S(=O)(=O)c1ccccc1 (centres undefined)
inactive: [14] > 100 µM | [2] > 100 µM | [3] > 100 µM | [4] > 100 µM | [5] > 100 µM | [6] > 100 µM | [7] > 100 µM | [8] > 100 µM

CN1c2ccc(Cl)cc2C(=O)NC1c1ccc([N+](=O)[O-])s1 (centres undefined)
inactive: [15] 16.2 µM | [16] 16.2 µM | [17] 14.1 µM | [9] 14.6 µM | [14] 6.19 µM | [10] 20.2 µM | [18] 17.3 µM | [11] 14.8 µM | [12] 14.5 µM | [2] 11.6 µM | [19] 16 µM | [20] 15.3 µM | [3] 18.9 µM | [4] 16.1 µM | [5] 16.6 µM | [7] 15.5 µM | [13] 15.1 µM | [8] 10.4 µM

OCc1ccc(C2CC(c3ccco3)=NN2c2ccccc2)o1 (centres undefined)
inactive: [9] > 100 µM | [14] > 100 µM | [10] > 100 µM | [1] > 100 µM | [2] > 100 µM | [3] > 100 µM | [4] > 100 µM | [5] > 100 µM | [7] > 100 µM | [8] > 100 µM

CCOC(=O)c1ccc(OCc2nc3cc(C(F)(F)F)ccc3nc2-c2ccccc2)cc1
inactive: [15] > 100 µM | [16] > 100 µM | [17] > 100 µM | [9] 42.1 µM | [14] > 100 µM | [10] > 100 µM | [18] > 100 µM | [11] > 100 µM | [12] > 100 µM | [2] > 100 µM | [19] > 100 µM | [20] > 100 µM | [3] > 100 µM | [4] 44 µM | [5] > 100 µM | [7] > 100 µM | [13] > 100 µM | [8] > 100 µM

Cc1ccc(NC(=S)SCCC(=O)O)cc1
inactive: [9] > 100 µM | [14] > 100 µM | [10] > 100 µM | [1] > 100 µM | [11] > 100 µM | [2] > 100 µM | [3] > 100 µM | [5] > 100 µM | [7] > 100 µM | [13] 81.8 µM | [8] > 100 µM

O=C(O)c1ccccc1NC(c1ccccc1)c1ccc2cccnc2c1O (centres undefined)
inactive: [15] 13.4 µM | [16] 12.1 µM | [17] 11 µM | [9] 2.06 µM | [14] 3.04 µM | [10] 8.97 µM | [18] 22.4 µM | [11] 24.6 µM | [12] 26.9 µM | [2] 10 µM | [19] 9.04 µM | [20] 3.77 µM | [3] 4.4 µM | [4] 8.39 µM | [5] 4.39 µM | [7] 3.63 µM | [13] 9.44 µM | [8] 4.06 µM

S=C(N/N=C(\C(=N/NC(=S)N1CCCCC1)c1ccccn1)c1ccccn1)N1CCCCC1
inactive: [15] 57.8 µM | [16] > 100 µM | [17] 78.2 µM | [9] > 100 µM | [14] 67.9 µM | [10] 51.2 µM | [18] 28.8 µM | [11] 32.7 µM | [12] 64.3 µM | [2] 18 µM | [19] 35.1 µM | [20] 7.06 µM | [3] 61 µM | [4] 5.5 µM | [5] 36.5 µM | [7] 3.63 µM | [13] 73.6 µM | [8] 8.53 µM

N#CC(C#N)=C(N)/C(C#N)=C/c1ccc2[nH]ccc2c1
inactive: [15] > 100 µM | [17] 70.6 µM | [9] > 100 µM | [14] > 100 µM | [10] > 100 µM | [18] > 100 µM | [1] > 100 µM | [11] > 100 µM | [12] > 100 µM | [2] > 91.2 µM | [19] > 100 µM | [20] > 100 µM | [3] > 100 µM | [4] > 100 µM | [5] > 100 µM | [7] > 100 µM | [13] > 100 µM | [8] > 100 µM

CCCCCCCCCC(=O)CC(=O)c1ccc(O)cc1O
inactive: [9] 15.8 µM | [14] 19.5 µM | [10] 21.1 µM | [12] 27.7 µM | [2] 28.4 µM | [3] 35.9 µM | [4] 17.6 µM | [5] 33.5 µM | [6] 28.5 µM | [7] 22.6 µM | [13] 23.7 µM | [8] 17.6 µM

c1cncc(-c2cc(-c3cc(-c4cccnc4)[nH]n3)n[nH]2)c1
inactive: [15] > 100 µM | [16] > 100 µM | [17] > 100 µM | [9] > 100 µM | [14] > 100 µM | [10] > 100 µM | [18] > 100 µM | [11] > 100 µM | [12] > 100 µM | [2] > 100 µM | [19] > 100 µM | [20] > 100 µM | [3] > 100 µM | [4] > 100 µM | [5] > 100 µM | [7] > 100 µM | [13] > 100 µM | [8] > 100 µM
